We go through 18 compounds from US8598210B2, “Prolyl hydroxylase inhibitors and methods of use” (Akebia Therapeutics Inc., priority 2006, dated 2013).

Test [1] has as its target Recombinant human EGLN-1-179/426 (Homo sapiens (Human), UniProt Q9GZT9). Put plainly: EGLN-1 Activity Assay (MALDI-TOF MS). To be noted: read-out: EGLIN1 IC50. Type of test: biochemical. As for the experimental part:
(§1) Hydroxylated peptide product is identified from substrate by the gain of 16 Da. Data defined as percent conversion of substrate to product is analyzed in GraphPad Prism 4 to calculate IC50 values.

Test [2] deals with EPO. Put plainly: Mouse Serum EPO Assay (mouse ischemic hindlimb study). It counts as in vivo. Particulars: for EPO response: in vivo response. As for the experimental part:
(§2) Mouse Ischemic Hindlimb Study
(§3) All animal work is conducted in accordance with the Guide for the Care and Use of Laboratory Animals (National Academy of Sciences; Copyright© 1996) and the Institutional Animal Care and Use Committee guidelines at Procter and Gamble Pharmaceuticals. We studied 9-10 week old male C57B1/6 mice from Charles River Laboratory (Portage, Mich.). The mice are orally dosed with vehicle (aqueous carbonate buffer, 50 mM; pH 9.0) or compound 1 in vehicle at 50 mg/kg or 100 mg/kg. The animals are dosed three times: day 1 at 8 am and 5 pm, day 2 at 8 am. One hour after the first dose, unilateral arterial ligation is performed under anesthesia using isoflurane. The femoral artery is ligated proximal to the origin of the popliteal artery. The contralateral limb underwent a sham surgical procedure. Ligation is performed in an alternating fashion between right and left hindlimbs. Two hours after 8 am dosing on day 2, we obtained blood by ventricular stick while the mice are anesthetized with isoflurane. Serum samples for EPO analysis are obtained using gel clot serum separation tubes. Heart, liver, and gastrocnemius muscles are harvested, snap-frozen in liquid nitrogen, and stored in −80° C. until use.
The mouse serum EPO is detected using Mouse Quantikine Erythropoietin ELISA kit from R&D Systems according to manufacturer's instructions.

In test [3] the target is Full-length recombinant human EGLN-3 (His-MBP-TVMV-EGLN-3 fusion) (Homo sapiens (Human), UniProt Q9H6Z9). Description: EGLN-3 enzyme activity assay (MALDI-TOF MS). It counts as biochemical. Particulars: read-out: EGLIN3 IC50. As for the experimental part: as §1
The test system of test [4] is HIF-1α. Description: Mouse Tissue HIF Western Blot Analysis. Type of test: in vivo. To be noted: FIG. 1; immunoblot analysis of nuclear extracts. As for the experimental part:
as §2, §3
Mouse Tissue HIF Western Blot Analysis
Tissues from mice stored at −80° C. are powdered with mortar and pestle chilled with liquid nitrogen. […]
On the technique in general: Immunoblotting shows a protein as a band on a membrane.

What is called IC50 is the concentration that gives 50% inhibition.

Chain of Recombinant human EGLN-1-179/426 (Q9GZT9 179-426): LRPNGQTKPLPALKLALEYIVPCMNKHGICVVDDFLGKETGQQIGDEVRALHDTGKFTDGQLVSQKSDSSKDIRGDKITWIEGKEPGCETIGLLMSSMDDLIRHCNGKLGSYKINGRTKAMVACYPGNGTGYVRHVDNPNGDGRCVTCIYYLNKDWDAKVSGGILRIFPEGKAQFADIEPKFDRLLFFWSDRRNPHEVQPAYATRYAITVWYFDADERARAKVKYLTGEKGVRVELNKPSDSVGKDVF
Chain of Full-length recombinant human EGLN-3 (His-MBP-TVMV-EGLN-3 fusion) (Q9H6Z9 whole entry, the tested form may be a part): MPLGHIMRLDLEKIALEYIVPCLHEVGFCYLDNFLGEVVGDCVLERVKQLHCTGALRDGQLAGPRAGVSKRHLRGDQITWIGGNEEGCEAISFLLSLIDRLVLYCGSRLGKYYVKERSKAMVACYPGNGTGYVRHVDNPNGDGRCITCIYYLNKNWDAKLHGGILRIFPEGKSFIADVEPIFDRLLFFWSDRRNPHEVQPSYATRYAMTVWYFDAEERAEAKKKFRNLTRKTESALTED

On to `O=C(O)CNC(=O)c1ncc(-c2cccc(-c3nn[nH]n3)c2)cc1O` [({3-Hydroxy-5-[3-(2H-tetrazol-5-yl)phenyl]-pyridine-2-carbonyl}-amino)-acetic acid], for which the IC50 in test [1] came to 400 nM.
`COC(=O)CNC(=O)c1ncc(-c2cccc(C(=O)N3CCCC3)c2)cc1O` [({3-Hydroxy-5-[3-(pyrrolidine-1-carbonyl)-phenyl]-pyridine-2-carbonyl}-amino)-acetic acid methyl ester]: the IC50 in test [1] turned out to be 2500 nM.
On the same count and under the same terms, next, `O=C(O)CNC(=O)c1ncc(-c2cccc(C(=O)N3CCCC3)c2)cc1O` [({3-Hydroxy-5-[3-(pyrrolidine-1-carbonyl)phenyl]-pyridine-2-carbonyl}amino)-acetic acid]: 300 nM.
`Cc1ccc(-c2ccc(C(=O)NCC(=O)O)c(O)c2)cc1` [[(3-Hydroxy-4′-methyl-biphenyl-4-carbonyl)-amino]-acetic acid]: the EPO response result in test [2] is recorded as “yes”. In addition, the IC50 in test [1] stood at 20000 nM.
For `COC(=O)CNC(=O)c1ncc(-c2ccc(C)cc2)cc1O` [[(3-Hydroxy-5-(4-methylphenyl)-pyridine-2-carbonyl)-amino]-acetic acid methyl ester], the IC50 in test [1] is 4100 nM; in test [3], 52300 nM.
For `Cc1ccc(-c2cnc(C(=O)NCC(=O)O)c(O)c2)cc1` [[(3-Hydroxy-5-(4-methylphenyl)pyridine-2-carbonyl)amino]-acetic acid], in test [2], the EPO response entry was “yes”. The half-inhibitory concentration (IC50) in test [3] is 180 nM.
Consider `COC(=O)CNC(=O)c1ncc(-c2ccccc2Cl)cc1O` [{[5-(2-Chloro-phenyl)-3-hydroxy-pyridine-2-carbonyl]-amino}-acetic acid methyl ester], for which the EPO response result in test [2] is “yes”. The IC50 in test [3] came to 37500 nM.
The corresponding values for `O=C(O)CNC(=O)c1ncc(-c2ccccc2Cl)cc1O` [{[5-(2-Chlorophenyl)-3-hydroxypyridine-2-carbonyl]amino}-acetic acid] are “yes” and 390 nM.
For `Cc1ccc(Cl)cc1-c1cnc(C(=O)NCC(=O)O)c(O)c1` [{[5-(2-Methyl-5-chlorophenyl)-3-hydroxypyridine-2-carbonyl]amino}-acetic acid], the IC50 in test [1] turned out to be 2500 nM.
Take `COC(=O)CNC(=O)c1ncc(-c2cccc(C(N)=O)c2)cc1O` [{[5-(3-Carbamoyl-phenyl)-3-hydroxy-pyridine-2-carbonyl]-amino}-acetic acid methyl ester]: in test [1], the IC50 turned out to be 11200 nM.
`O=C(O)CNC(=O)c1ncc(-c2cccc(Cl)c2)cc1O` [{[5-(3-Chlorophenyl)-3-hydroxypyridine-2-carbonyl]amino}-acetic acid]: in test [2] (FIG. 2, after oral dosing), the “erythropoietin level versus vehicle in mouse serum” value is “elevated”. In addition, the EPO response result in test [2] is given as “yes”. For the same compound, the “stabilization of HIF-1α in mouse liver” value in test [4] is “stabilization”.
On to `N#Cc1cccc(-c2cnc(C(=O)NCC(=O)O)c(O)c2)c1` [{[5-(3-Cyanophenyl)-3-hydroxypyridine-2-carbonyl]amino}-acetic acid], for which the IC50 in test [1] stood at 190 nM.
For `COC(=O)CNC(=O)c1ncc(-c2cccc(Cl)c2)cc1O` [{[5-(3-chloro-phenyl)-3-hydroxy-pyridine-2-carbonyl]-amino}-acetic acid methyl ester], in test [2], the EPO response entry is given as “yes”. The IC50 in test [1] amounted to 2800 nM; in test [3], 21400 nM.
As to `COC(=O)CNC(=O)c1ncc(-c2ccc(Cl)cc2)cc1O` [{[5-(4-Chloro-phenyl)-3-hydroxy-pyridine-2-carbonyl]-amino}-acetic acid methyl ester], the IC50 in test [1] is 3700 nM.
Take `N#Cc1ccc(-c2cnc(C(=O)NCC(=O)O)c(O)c2)cc1` [{[5-(4-Cyanophenyl)-3-hydroxypyridine-2-carbonyl]amino}-acetic acid]: in test [2], the EPO response result is “yes”. The IC50 in test [3] stood at 560 nM.
For `CC(C)Oc1ccc(-c2cnc(C(=O)NCC(=O)O)c(O)c2)cc1` [{[5-(4-Isopropoxyphenyl)-3-hydroxypyridine-2-carbonyl]amino}-acetic acid], the half-maximal inhibitory concentration (IC50) in test [1] turned out to be 1600 nM.
On the same count and under the same terms, next, `CC(C)c1ccc(-c2cnc(C(=O)NCC(=O)O)c(O)c2)cc1` [{[5-(4-Isopropylphenyl)-3-hydroxypyridine-2-carbonyl]amino}-acetic acid]: 440 nM.
As to “{[5-(4-Chlorophenyl)-3-hydroxypyridine-2-carbonyl]amino}-acetic acid”, the EPO response entry in test [2] was “yes”. The IC50 in test [3] amounted to 83 nM.
